Columns and labels:
Type in all cases: in vivo
[1] = test system: Puccinia recondita f. sp. tritici; assay: Test E2: wheat seedlings sprayed, next day inoculated with Puccinia recondita f. sp. tritici (wheat leaf rust), visual disease rating; settings: sprayed day before inoculation; for pest or weed control at 40 ppm / pest or weed control at 200 ppm: Puccinia recondita; for pest or weed control at 40 ppm: 40 ppm test suspension (*); for Test E2 rating (disease control) / pest or weed control at 200 ppm: 200 ppm test suspension
Excerpt: (§1) General protocol for preparing test suspensions for Tests A-F: the test compounds were first dissolved in acetone in an amount equal to 3% of the final volume and then suspended at the desired concentration (in ppm) in acetone and purified water (50/50 mix) containing 250 ppm of the surfactant Trem® 014 (polyhydric alcohol esters). The resulting test suspensions were then used in Tests A-F. Spraying a 200 ppm test suspension to the point of run-off on the test plants was the equivalent of a rate of 500 g/ha. An asterisk “*” next to the rating value indicates a 40 ppm test suspension.
The test suspension was sprayed to the point of run-off on wheat seedlings. The following day the seedlings were inoculated with a spore suspension of Puccinia recondita f. sp. tritici (the causal agent of wheat leaf rust) and incubated in a saturated atmosphere at 20° C. for 24 h, and then moved to a growth chamber at 20° C. for 7 days, after which time visual disease ratings were made.
(§2) Results for Tests A-F are given in Table A. In the Table, a rating of 100 indicates 100% disease control and a rating of 0 indicates no disease control (relative to the controls). A dash (-) indicates no test results. All results are for 200 ppm except where followed by “*”, which indicates 40 ppm.

[2] = test system: Alternaria solani; assay: Test B: tomato seedlings sprayed, next day inoculated with Alternaria solani (tomato early blight), visual disease rating; settings: sprayed day before inoculation; for pest or weed control at 40 ppm / pest or weed control at 200 ppm: Alternaria solani; for pest or weed control at 40 ppm: 40 ppm test suspension (*); for Test B rating (disease control) / pest or weed control at 200 ppm: 200 ppm test suspension
Excerpt: as §1
(§3) The test suspension was sprayed to the point of run-off on tomato seedlings. The following day the seedlings were inoculated with a spore suspension of Alternaria solani (the causal agent of tomato early blight) and incubated in a saturated atmosphere at 27° C. for 48 h, and then moved to a growth chamber at 20° C. for 5 days, after which time visual disease ratings were made.
as §2

[3] = test system: Septoria nodorum; assay: Test C: wheat seedlings sprayed, next day inoculated with Septoria nodorum (wheat glume blotch), visual disease rating; settings: sprayed day before inoculation; for pest or weed control at 40 ppm / pest or weed control at 200 ppm: Parastagonospora nodorum; for pest or weed control at 40 ppm: 40 ppm test suspension (*); for Test C rating (disease control) / pest or weed control at 200 ppm: 200 ppm test suspension
Excerpt: as §1
as §3, with “wheat” for “tomato”, “Septoria nodorum” for “Alternaria solani”, “wheat glume blotch)” for “tomato early blight)”, “24°” for “27°”, “6” for “5”
as §2

[4] = test system: Erysiphe graminis; assay: Test F: wheat seedlings sprayed, next day inoculated with Erysiphe graminis (wheat powdery mildew), visual disease rating; settings: sprayed day before inoculation; for pest or weed control at 40 ppm / pest or weed control at 200 ppm: Blumeria graminis; for pest or weed control at 40 ppm: 40 ppm test suspension (*); for Test F rating (disease control) / pest or weed control at 200 ppm: 200 ppm test suspension
Excerpt: as §1
The test suspension was sprayed to the point of run-off on wheat seedlings. The following day the seedlings were inoculated with a spore dust of Erysiphe graminis, (the causal agent of wheat powdery mildew) and incubated in a growth chamber at 20° C. for 8 days, after which time visual disease ratings were made.
as §2

[5] = test system: Botrytis cinerea; assay: Test A: tomato seedlings sprayed, next day inoculated with Botrytis cinerea (tomato Botrytis), visual disease rating; settings: sprayed day before inoculation; for pest or weed control at 40 ppm / pest or weed control at 200 ppm: Botrytis cinerea; for pest or weed control at 40 ppm: 40 ppm test suspension (*); for Test A rating (disease control) / pest or weed control at 200 ppm: 200 ppm test suspension
Excerpt: as §1
as §3, with “Botrytis cinerea” for “Alternaria solani”, “Botrytis)” for “early blight)”, “in” for “in a”, “20°” for “27°”, “24°” for “20°”, “3” for “5”
as §2

[6] = test system: Septoria tritici; assay: Test D: wheat seedlings sprayed, next day inoculated with Septoria tritici (wheat leaf blotch), visual disease rating; settings: sprayed day before inoculation; for pest or weed control at 40 ppm / pest or weed control at 200 ppm: Zymoseptoria tritici; for pest or weed control at 40 ppm: 40 ppm test suspension (*); for Test D rating (disease control) / pest or weed control at 200 ppm: 200 ppm test suspension
Excerpt: as §1
The test suspension was sprayed to the point of run-off on wheat seedlings. The following day the seedlings were inoculated with a spore suspension of Septoria tritici (the causal agent of wheat leaf blotch) and incubated in saturated atmosphere at 24° C. for 48 h, and then moved to a growth chamber at 20° C. for 19 days, after which time visual disease ratings were made.
as §2

SMILES | pest or weed control at 40 ppm [1] [%] | pest or weed control at 40 ppm [2] [%] | pest or weed control at 40 ppm [3] [%] | pest or weed control at 40 ppm [4] [%] | pest or weed control at 40 ppm [5] [%] | pest or weed control at 40 ppm [6] [%] | Test E2 rating (disease control) [1] [%] | Test B rating (disease control) [2] [%] | Test C rating (disease control) [3] [%] | Test F rating (disease control) [4] [%] | Test A rating (disease control) [5] [%] | Test D rating (disease control) [6] [%] | also measured
COc1cc(OC)cc(-c2c(Cl)nnc(C)c2-c2c(F)cc(F)cc2F)c1 [Compound 12, 3-chloro-4-(3,5-dimethoxyphenyl)-6-methyl-5-(2,4,6-trifluorophenyl)pyridazine] | 100 | 100 | 99 | 100 | 99 | 99 |  |  |  |  |  |  | 
COc1cc(OC)c(Cl)c(-c2c(C)nnc(Cl)c2-c2c(F)cccc2F)c1 [Compound 28] |  |  |  |  |  |  | 100 | 100 | 78 | 100 | 100 | 100 | 
COc1cc(OC)cc(-c2c(C)nnc(C)c2-c2c(F)ccc(F)c2F)c1 [Compound 17, 4-(3,5-dimethoxyphenyl)-3,6-dimethyl-5-(2,3,6-trifluorophenyl)pyridazine] |  |  |  |  |  |  |  |  |  |  |  |  | pest or weed control at 200 ppm [1]: 100%; pest or weed control at 200 ppm [2]: 100%; pest or weed control at 200 ppm [3]: 99%; pest or weed control at 200 ppm [4]: 100%; pest or weed control at 200 ppm [5]: 100%; pest or weed control at 200 ppm [6]: 99%
COc1cc(OC)cc(-c2c(C)nnc(Cl)c2-c2c(F)ccc(F)c2F)c1 [Compound 15, 3-chloro-5-(3,5-dimethoxyphenyl)-6-methyl-4-(2,3,6-trifluorophenyl)pyridazine] |  |  |  |  |  |  |  |  |  |  |  |  | pest or weed control at 200 ppm [1]: 100%; pest or weed control at 200 ppm [2]: 100%; pest or weed control at 200 ppm [3]: 84%; pest or weed control at 200 ppm [4]: 99%; pest or weed control at 200 ppm [5]: 100%; pest or weed control at 200 ppm [6]: 99%
COc1cc(OC)cc(-c2cnnc(C)c2-c2c(F)cc(F)cc2F)c1 [Compound 6, 5-(3,5-dimethoxyphenyl)-3-methyl-4-(2,4,6-trifluorophenyl)pyridazine] |  |  |  |  |  |  |  |  |  |  |  |  | pest or weed control at 200 ppm [1]: 100%; pest or weed control at 200 ppm [2]: 100%; pest or weed control at 200 ppm [3]: 96%; pest or weed control at 200 ppm [4]: 100%; pest or weed control at 200 ppm [5]: 97%; pest or weed control at 200 ppm [6]: 93%
COc1cc(OC)cc(-c2c(Cl)nnc(C)c2-c2ccc(Cl)cc2)c1 [Compound 1] |  |  |  |  |  |  | 0 | 0 | 0 | 0 | 0 | 0 | 
COc1cc(OC)cc(-c2c(C)nnc(C)c2-c2c(F)cccc2F)c1 [Compound 31] |  |  |  |  |  |  | 99 | 99 | 100 | 98 | 100 | 100 | 
COc1cc(OC)cc(-c2c(C(C)(C)O)nnc(C)c2-c2c(F)cc(F)cc2F)c1 [Compound 21, 4-(3,5-dimethoxyphenyl)-α,α,6-trimethyl-5-(2,4,6-trifluorophenyl)-3-pyridazinemethanol] | 100 | 99 | 40 | 100 | 100 | 98 |  |  |  |  |  |  | 
COc1cc(OC)cc(-c2c(C)nnc(C)c2-c2c(F)cc(OC)cc2F)c1 [Compound 11, 4-(2,6-difluoro-4-methoxyphenyl)-5-(3,5-dimethoxyphenyl)-3,6-dimethylpyridazine] | 100 | 100 | 99 | 100 | 100 | 100 |  |  |  |  |  |  | 
COc1cc(OC)cc(-c2c(Cl)nnc(C)c2-c2c(F)cccc2F)c1 [Compound 4, 3-chloro-4-(3,5-dimethoxyphenyl)-6-methyl-5-(2,6-difluorophenyl)pyridazine] |  |  |  |  |  |  |  |  |  |  |  |  | pest or weed control at 200 ppm [1]: 100%; pest or weed control at 200 ppm [2]: 97%; pest or weed control at 200 ppm [3]: 0%; pest or weed control at 200 ppm [4]: 95%; pest or weed control at 200 ppm [5]: 95%; pest or weed control at 200 ppm [6]: 98%
COc1ccc(-c2c(C)nnc(Cl)c2-c2cc(OC)cc(OC)c2)cc1 [Compound 2] |  |  |  |  |  |  | 74 | 58 | 0 | 26 | 95 | 62 | 
COc1cc(OC)cc(-c2c(C)nnc(Cl)c2-c2c(F)cc(F)cc2F)c1 [Compound 8, 3-chloro-5-(3,5-dimethoxyphenyl)-6-methyl-4-(2,4,6-trifluorophenyl)-pyridazine] | 100 | 100 | 100 | 99 | 100 | 99 |  |  |  |  |  |  | 
COc1cc(OC)cc(-c2c(C)nnc(Cl)c2-c2c(F)cc(OC)cc2F)c1 [Compound 10, 3-chloro-4-(2,6-difluoro-4-methoxyphenyl)-5-(3,5-dimethoxyphenyl)-6-methylpyridazine] | 100 | 100 | 98 | 99 | 100 | 99 |  |  |  |  |  |  | 
COc1cc(OC)cc(-c2c(C)nnc(C)c2-c2c(F)cc(F)cc2F)c1 [Compound 9, 4-(3,5-dimethoxyphenyl)-3,6-dimethyl-5-(2,4,6-trifluorophenyl)pyridazine] | 100 | 99 | 100 | 100 | 100 | 100 |  |  |  |  |  |  | 
COc1cc(OC)c(Cl)c(-c2c(C)nnc(Cl)c2-c2c(F)cc(F)cc2F)c1 [Compound 23, 3-chloro-5-(2-chloro-3,5-dimethoxyphenyl)-6-methyl-4-(2,4,6-trifluoro-phenyl)pyridazine] | 100 | 100 | 100 | 100 | 100 | 100 |  |  |  |  |  |  | 
COc1cc(OC)c(Cl)c(-c2c(C)nnc(C)c2-c2c(F)cccc2F)c1Cl [Compound 34] |  |  |  |  |  |  | 100 | 0 | 0 | 97 | 100 | 100 | 
COc1cc(OC)cc(-c2cnnc(CCl)c2-c2c(F)cc(F)cc2F)c1 [Compound 7, 3-(chloromethyl)-5-(3,5-dimethoxyphenyl)-4-(2,4,6-trifluorophenyl)-pyridazine] |  |  |  |  |  |  |  |  |  |  |  |  | pest or weed control at 200 ppm [1]: 98%; pest or weed control at 200 ppm [2]: 26%; pest or weed control at 200 ppm [3]: 94%; pest or weed control at 200 ppm [4]: 99%; pest or weed control at 200 ppm [5]: 91%; pest or weed control at 200 ppm [6]: 96%
COc1cc(OC)cc(-c2c(Cl)nnc(C)c2-c2ccc(F)cc2F)c1 [Compound 3] |  |  |  |  |  |  | 97 | 31 | 0 | 79 | 91 | 97 | 
COc1cc(OC)cc(-c2c(Cl)nnc(C)c2-c2ccc(F)cc2)c1 [Compound 13] |  |  |  |  |  |  | 19 | 0 | 0 | 39 | 8 | 45 | 

— patent publication US20120135995A1, “FUNGICIDAL DIPHENYL-SUBSTITUTED PYRIDAZINES” (E.I. Dupont de Nemours and Company, priority 2009, published 2012)
